This assay concerns HIV. In words: MT4 assay: antiviral HIV activity (cell protection, cell titer glo readout at 96 hours). The format is cell-based. To be noted: Human immunodeficiency virus 1, MT4, 96 h, MT4 cells, cell titer glo readout at 96 hours, 10 point dose response; read-out: HIV MT4 Assay IC50. As to the method:
Antiviral HIV activity and cytotoxicity values for compounds of the invention from Table 1 were measured in parallel in the HTLV-1 transformed cell line MT-4 based on the method previously described (Hazen et al., 2007, In vitro antiviral activity of the novel, tyrosyl-based human immunodeficiency virus (HIV) type 1 protease inhibitor brecanavir (GW640385) in combination with other antiretrovirals and against a panel of protease inhibitor-resistant HIV (Hazen et al., “In vitro antiviral activity of the novel, tyrosyl-based human immunodeficiency virus (HIV) type 1 protease inhibitor brecanavir (GW640385) in combination with other antiretrovirals and against a panel of protease inhibitor-resistant HIV”, Antimicrob. Agents Chemother. 2007, 51: 3147-3154; and Pauwels et al., “Sensitive and rapid assay on MT-4 cells for the detection of antiviral compounds against the AIDS virus”, J. of Virological Methods 1987, 16: 171-185).
Luciferase activity was measured 96 hours later by adding a cell titer glo (Promega, Madison, Wis.). Percent inhibition of cell protection data was plotted relative to no compound control. Under the same condition, cytotoxicity of the compounds was determined using cell titer Glo™ (Promega, Madison, Wis.). IC50s were determined from a 10 point dose response curve using 3-4-fold serial dilution for each compound, which spans a concentration range >1000 fold.
These values are plotted against the molar compound concentrations using the standard four parameter logistic equation:
y=((Vmax*x̂n)/(K̂n+x̂n))+Y2
Y2=minimum y n=slope factor
Vmax=maximum y x=compound concentration [M]
(In general: Cellular ATP, detected with luciferase, serves as a proxy for viable cell number.)
For the compound `Cc1nc2c(cc(-c3ccnc(-c4ccc5c(cnn5C)c4)c3)n2C)c(-c2cc(F)c3c(c2C)NCCO3)c1[C@H](OC(C)(C)C)C(=O)O` (atropisomer, axis not shown) [Example 3, (2S)-2-(tert-butoxy)-2-[4-(8-fluoro-5-methyl-3,4-dihydro-2H-1,4-benzoxazin-6-yl)-1,6-dimethyl-2-[2-(1-methyl-1H-indazol-5-yl)pyridin-4-yl]-1H-pyrrolo[2,3-b]pyridin-5-yl]acetic acid], the IC50 amounted to 1.9 nM.

As for `Cc1nc2c(cc(-c3ccnc(-c4cnc5c(cnn5C)c4)c3)n2C)c(-c2ccc3c(c2C)CCCO3)c1[C@H](OC(C)(C)C)C(=O)O` (atropisomer, axis not shown) [Example 4, (2S)-2-(tert-butoxy)-2-[1,6-dimethyl-2-(2-{1-methyl-1H-pyrazolo[3,4-b]pyridin-5-yl}pyridin-4-yl)-4-(5-methyl-3,4-dihydro-2H-1-benzopyran-6-yl)-1H-pyrrolo[2,3-b]pyridin-5-yl]acetic acid], the IC50 is 1.6 nM.

`Cc1nc2c(cc(-c3ccnc(-c4cccnc4)c3)n2C)c(-c2cc(F)c3c(c2C)CCCO3)c1[C@H](OC(C)(C)C)C(=O)O` (atropisomer, axis not shown) [Example 6, (2S)-2-(tert-butoxy)-2-[4-(8-fluoro-5-methyl-3,4-dihydro-2H-1-benzopyran-6-yl)-1,6-dimethyl-2-[2-(pyridin-3-yl)pyridin-4-yl]-1H-pyrrolo[2,3-b]pyridin-5-yl]acetic acid]: the IC50 is 14.8 nM.

With `Cc1nc2c(cc(-c3ccnc(-c4ccc5c(c4)CCN5C)c3)n2C)c(-c2cc(F)c3c(c2C)CCCO3)c1[C@H](OC(C)(C)C)C(=O)O` (atropisomer, axis not shown) [Example 8, (2S)-2-(tert-butoxy)-2-[4-(8-fluoro-5-methyl-3,4-dihydro-2H-1-benzopyran-6-yl)-1,6-dimethyl-2-[2-(1-methyl-2,3-dihydro-1H-indol-5-yl)pyridin-4-yl]-1H-pyrrolo[2,3-b]pyridin-5-yl]acetic acid], the IC50 is 5.6 nM.

As for `Cc1nc2c(cc(-c3ccnc(-c4cnn(C5CCOCC5)c4)c3)n2C)c(-c2cc(F)c3c(c2C)CCCO3)c1[C@H](OC(C)(C)C)C(=O)O` (atropisomer, axis not shown) [Example 9, (2S)-2-(tert-butoxy)-2-[4-(8-fluoro-5-methyl-3,4-dihydro-2H-1-benzopyran-6-yl)-1,6-dimethyl-2-{2-[1-(oxan-4-yl)-1H-pyrazol-4-yl]pyridin-4-yl}-1H-pyrrolo[2,3-b]pyridin-5-yl]acetic acid], the IC50 worked out at 16.2 nM.

Take `Cc1nc2c(cc(-c3ccnc(N4CCN(C)CC4)c3)n2C)c(-c2cc(F)c3c(c2C)CCCO3)c1[C@H](OC(C)(C)C)C(=O)O` (atropisomer, axis not shown) [Example 10, (2S)-2-(tert-butoxy)-2-[4-(8-fluoro-5-methyl-3,4-dihydro-2H-1-benzopyran-6-yl)-1,6-dimethyl-2-[2-(4-methylpiperazin-1-yl)pyridin-4-yl]-1H-pyrrolo[2,3-b]pyridin-5-yl]acetic acid]: the IC50 turned out to be 30.3 nM.

For the compound `Cc1nc2c(cc(C(=O)N3CCN(c4ccc5c(cnn5C)c4)CC3)n2C)c(-c2cc(F)c3c(c2C)CCCO3)c1[C@H](OC(C)(C)C)C(=O)O` (atropisomer, axis not shown) [Example 11, (2S)-2-(tert-butoxy)-2-[4-(8-fluoro-5-methyl-3,4-dihydro-2H-1-benzopyran-6-yl)-1,6-dimethyl-2-{[4-(1-methyl-1H-indazol-5-yl)piperazin-1-yl]carbonyl}-1H-pyrrolo[2,3-b]pyridin-5-yl]acetic acid], the IC50 came to 14.8 nM.

As to `Cc1nc2c(cc(-c3ccc(-c4ccc5c(cnn5C)c4)nc3)n2C)c(-c2cc(F)c3c(c2C)CCCO3)c1[C@H](OC(C)(C)C)C(=O)O` (atropisomer, axis not shown) [Example 18, (2S)-2-(tert-butoxy)-2-[4-(8-fluoro-5-methyl-3,4-dihydro-2H-1-benzopyran-6-yl)-1,6-dimethyl-2-[6-(1-methyl-1H-indazol-5-yl)pyridin-3-yl]-1H-pyrrolo[2,3-b]pyridin-5-yl]acetic acid], the IC50 worked out at 26.3 nM.

For the compound `Cc1nc2c(cc(-c3ccnc(N4CCN(C5COC5)CC4)c3)n2C)c(-c2cc(F)c3c(c2C)CCCO3)c1[C@H](OC(C)(C)C)C(=O)O` (atropisomer, axis not shown) [Example 25, (2S)-2-(tert-butoxy)-2-[4-(8-fluoro-5-methyl-3,4-dihydro-2H-1-benzopyran-6-yl)-1,6-dimethyl-2-{2-[4-(oxetan-3-yl)piperazin-1-yl]pyridin-4-yl}-1H-pyrrolo[2,3-b]pyridin-5-yl]acetic acid], the IC50 came to 10.6 nM.

With `Cc1nc2c(cc(-c3ccnc(-c4ccnc(N5CCN(C)CC5)c4)c3)n2C)c(-c2cc(F)c3c(c2C)CCCO3)c1[C@H](OC(C)(C)C)C(=O)O` (atropisomer, axis not shown) [Example 30], the IC50 was 4.1 nM.

Turning to `Cc1ccc(-c2cc(-c3cc4c(-c5cc(F)c6c(c5C)CCCO6)c([C@H](OC(C)(C)C)C(=O)O)c(C)nc4n3C)ccn2)cc1` (atropisomer, axis not shown) [Example 31], the IC50 worked out at 11 nM.

As to `Cc1nc2c(cc(-c3ccnc(C4=CCCCC4)c3)n2C)c(-c2cc(F)c3c(c2C)CCCO3)c1[C@H](OC(C)(C)C)C(=O)O` (atropisomer, axis not shown) [Example 32], the IC50 worked out at 34.5 nM.

For the compound `Cc1nc2c(cc(-c3ccnc(-c4cnc(N(C)C)nc4)c3)n2C)c(-c2cc(F)c3c(c2C)CCCO3)c1[C@H](OC(C)(C)C)C(=O)O` (atropisomer, axis not shown) [Example 33], the IC50 worked out at 7.2 nM.

Consider `Cc1nc2c(cc(-c3ccnc(-c4ccc5nccn5c4)c3)n2C)c(-c2cc(F)c3c(c2C)CCCO3)c1[C@H](OC(C)(C)C)C(=O)O` (atropisomer, axis not shown) [Example 34], for which the IC50 is 4.2 nM.

Turning to `Cc1nc2c(cc(-c3ccnc(-c4ccc5nnn(C)c5c4)c3)n2C)c(-c2cc(F)c3c(c2C)CCCO3)c1[C@H](OC(C)(C)C)C(=O)O` (atropisomer, axis not shown) [Example 35], the IC50 was found to be 10.9 nM.

As for `Cc1nc2c(cc(-c3ccnc(-c4cnc(O)nc4)c3)n2C)c(-c2cc(F)c3c(c2C)CCCO3)c1[C@H](OC(C)(C)C)C(=O)O` (atropisomer, axis not shown) [Example 36], the IC50 came out at 8410 nM.

On to `Cc1nc2c(cc(-c3ccnc(-c4ccc5c(c4)C(C)(C)CO5)c3)n2C)c(-c2cc(F)c3c(c2C)CCCO3)c1[C@H](OC(C)(C)C)C(=O)O` (atropisomer, axis not shown) [Example 37], for which the IC50 was found to be 47.4 nM.

For `Cc1nc2c(cc(-c3ccnc(C4=CCN(C)CC4)c3)n2C)c(-c2cc(F)c3c(c2C)CCCO3)c1[C@H](OC(C)(C)C)C(=O)O` (atropisomer, axis not shown) [Example 38], the IC50 was 17.9 nM.

`Cc1nc2c(cc(-c3ccnc(-c4ccc5ccccc5c4)c3)n2C)c(-c2cc(F)c3c(c2C)CCCO3)c1[C@H](OC(C)(C)C)C(=O)O` (atropisomer, axis not shown) [Example 39]: the 50% inhibitory concentration (IC50) is 17.3 nM.

With `Cc1nc2c(cc(-c3ccnc(-c4ccc5ncccc5c4)c3)n2C)c(-c2cc(F)c3c(c2C)CCCO3)c1[C@H](OC(C)(C)C)C(=O)O` (atropisomer, axis not shown) [Example 40], the IC50 was found to be 2.2 nM.

As to `Cc1nc2c(cc(-c3ccnc(-c4ccc5cnn(C)c5c4)c3)n2C)c(-c2cc(F)c3c(c2C)CCCO3)c1[C@H](OC(C)(C)C)C(=O)O` (atropisomer, axis not shown) [Example 41], the IC50 worked out at 4.6 nM.

Take `Cc1nc2c(cc(-c3ccnc(-c4ccc5c(c4C)NCCO5)c3)n2C)c(-c2cc(F)c3c(c2C)CCCO3)c1[C@H](OC(C)(C)C)C(=O)O` (atropisomer, axis not shown) [Example 42]: the IC50 was 3.2 nM.

`Cc1noc(C)c1-c1cc(-c2cc3c(-c4cc(F)c5c(c4C)CCCO5)c([C@H](OC(C)(C)C)C(=O)O)c(C)nc3n2C)ccn1` (atropisomer, axis not shown) [Example 43]: the IC50 came out at 72.9 nM.

As for `Cc1nc2c(cc(-c3ccnc(-c4ccc(N5CCCC5)nc4)c3)n2C)c(-c2cc(F)c3c(c2C)CCCO3)c1[C@H](OC(C)(C)C)C(=O)O` (atropisomer, axis not shown) [Example 45], the IC50 was determined as 4.8 nM.

Turning to `Cc1nc2c(cc(-c3ccnc(-c4ccncc4)c3)n2C)c(-c2cc(F)c3c(c2C)CCCO3)c1[C@H](OC(C)(C)C)C(=O)O` (atropisomer, axis not shown) [Example 46], the IC50 was determined as 7.8 nM.

For the compound `Cc1nc2c(cc(-c3ccnc(-c4ccc5c(c4)CCN(C4COC4)C5)c3)n2C)c(-c2cc(F)c3c(c2C)CCCO3)c1[C@H](OC(C)(C)C)C(=O)O` (atropisomer, axis not shown) [Example 47], the IC50 stood at 5.6 nM.

For `Cc1nc2c(cc(-c3ccnc(-c4ccc5c(c4)CN(C4COC4)CC5)c3)n2C)c(-c2cc(F)c3c(c2C)CCCO3)c1[C@H](OC(C)(C)C)C(=O)O` (atropisomer, axis not shown) [Example 48], the IC50 was determined as 4.4 nM.

Consider `Cc1nc2c(cc(-c3ccnc(-c4ccc(O)c(N)c4)c3)n2C)c(-c2cc(F)c3c(c2C)CCCO3)c1[C@H](OC(C)(C)C)C(=O)O` (atropisomer, axis not shown) [Example 49], for which the IC50 came to 114 nM.

In general, IC50 refers to the concentration that inhibits the measured activity by half.

The values are drawn from patent US20150191469A1, “COMPOUNDS AND METHODS FOR TREATING HIV” (priority 2012, published 2015).
